Assay results: publication PMC2409936, “Phase I and pharmacokinetic study of XR11576, an oral topoisomerase I and II inhibitor, administered on days 1–5 of a 3-weekly cycle in patients with advanced solid tumours” (British Journal of Cancer, 2004)
Where two headings read alike, the source gives them in different places.

Experiments:
dogs = settings: cited from earlier work
[1] = mice; cited from earlier work
[2] = test system: multidrug-resistant cells overexpressing P-gp or MRP, cells with downregulation of topoisomerase II levels; design: method as in Di Nicolantonio et al, 2002; settings: cells overexpressing P-gp or MRP or with downregulated topoisomerase II; ref Di Nicolantonio et al, 2002; cited from earlier work
animals = settings: in animals; cited from earlier work
[3] = rats; cited from earlier work
[4] = test system: murine and human tumour cell lines; design: method as in Mistry et al, 2002; Lewis et al, 2003; settings: murine leukaemias and human colon, breast, ovarian and lung carcinoma cell lines; ref Mistry et al, 2002; Lewis et al, 2003; cited from earlier work
[5] = Plasma pharmacokinetics in patients (LC-MS, noncompartmental analysis); type: in vivo, human; settings: for AUC(0-inf) / AUC(0-t) / Cmax / Tmax / half-life: plasma, oral
Protocol: For PK analysis, 58 blood samples (∼5 ml each) were obtained from an indwelling intravenous cannula and collected in vials containing lithium heparin as anticoagulant. The samples were taken immediately before dosing, 30 min and 1, 1.5, 2, 3, 4, 6, 8 and 10 h after administration of the drug on days 1 and 4 (or 5) of the first and second courses. Additional samples were taken immediately prior to dosing on days 2, 3, 4 and 5, and 24, 48, 72, 144 and 312 h after the dose administration on day 5, both in the first and second cycles. From the third cycle onwards, PK samples were taken prior to dosing on day 5 to measure the potential accumulation of XR11576.
(§1) All samples were centrifuged immediately after sampling at 3000 r.p.m. for 10 min at 4°C and the plasma was stored at −20°C or lower in polypropylene tubes in the dark until analysis. A total of four urine samples were also collected over a 24-h period; 0–4, 4–8, 8–12 and 12–24 h post-dosing on day 1 of the first cycle only. Of the total amount collected, a measured quantity of 10 ml was drawn off and stored at −80°C until analysis. Concentrations of XR11576 in plasma were determined according to a validated liquid chromatography-mass spectrometry detection method with liquid–liquid extraction at the Drug Metabolism and Pharmacokinetics Department of Quintiles Limited (Internal Report at Quintiles). The lower limit of quantitation was 5 ng ml^−1.
The apparent terminal half-life (T1/2(z)) of XR11576 was calculated as ln 2/k, where k is the terminal elimination rate constant (expressed in h^−1). The peak plasma concentrations (Cmax) and the time to peak plasma concentration (Tmax) were determined from the experimental values. The areas under the plasma concentration–time curve (AUC) of XR11576 were estimated using the experimental values (trapezoidal rule) with extrapolation to infinity (AUC0–∞) using the apparent terminal rate constant, defined as the slope of the final three to four data points of the log-linear concentration–time plot. The total body clearance (CL) was calculated as the ratio between the administered dose and the AUC0–∞. The extent of accumulation (R0) in plasma was calculated from AUC0–24 h (days 4 or 5)/AUC0–24 h (day 1). The fraction of the administered dose (Fe) excreted in urine and the cumulative amount of XR11576 excreted in urine (Ae) was determined. PK data analysis was carried out using a noncompartmental analysis approach with the aid of WinNonlin Version Pron4.0.1 (Pharsight, Cary NC 27511).
A nonlinear power model was used to assess dose proportionality separately for each day during cycles 1 and 2. Statistical analyses were performed using SAS version 8.1.

[6] = dogs, cited from earlier work
rats = settings: 14-day oral administration schedule; cited from earlier work
[7] = Urinary excretion in patients; type: in vivo, human; settings: within 24 h after drug administration
Protocol: as §1
The apparent terminal half-life (T1/2(z)) of XR11576 was calculated as ln 2/k, where k is the terminal elimination rate constant (expressed in h^−1). The peak plasma concentrations (Cmax) and the time to peak plasma concentration (Tmax) were determined from the experimental values. […] The total body clearance (CL) was calculated as the ratio between the administered dose and the AUC0–∞. The extent of accumulation (R0) in plasma was calculated from AUC0–24 h (days 4 or 5)/AUC0–24 h (day 1). The fraction of the administered dose (Fe) excreted in urine and the cumulative amount of XR11576 excreted in urine (Ae) was determined. […]

[8] = design: method as in data on file, FPD 1055; settings: ref data on file, FPD 1055; cited from earlier work
[9] = human, 30 mg day^−1, first treatment course, mean, N=3
[10] = human, 60 mg day^−1, first treatment course, mean, N=4
[11] = human, 120 mg day^−1, first treatment course, mean, N=8
[12] = human, 150 mg day^−1, first treatment course, mean, N=3
[13] = human, 180 mg day^−1, first treatment course, mean, N=3

Compound: COc1cccc2c1ccc1nc3cccc(C(=O)N[C@H](C)CN(C)C)c3nc12 [XR11576, 4-methoxy-benzo[a]phenazine-11-carboxylic acid (2-dimethulamino-1-R-methyl-ethyl)-amide]
- maximum tolerated dose (MTD) (dogs; 8/9-day oral administration schedule): 200 mg m^−2
- toxicities observed (dogs; i.v. doses repeatedly administered): myocarditis and nephritis
- effect of food on bioavailability [1]: food reduced the bioavailability
- oral availability [1]: 72±25%
- activity against resistant cells [2]: active
- predominantly induced toxicity (animals): bone marrow and gastrointestinal toxicity
- oral availability [3]: 54±32%
- antitumour activity in vitro [4]: exerted antitumour activity
- R0 (ratio of accumulation) ([5]; 30 mg day^−1, first treatment course, mean, N=3): 1.56
- R0 (ratio of accumulation) ([5]; 60 mg day^−1, first treatment course, mean, N=4): 1.87
- R0 (ratio of accumulation) ([5]; 120 mg day^−1, first treatment course, mean, N=8): 1.93
- R0 (ratio of accumulation) ([5]; 150 mg day^−1, first treatment course, mean, N=3): 1.53
- R0 (ratio of accumulation) ([5]; 180 mg day^−1, first treatment course, mean, N=3): 1.34
- increase of systemic exposure with dose ([5]; 30–180 mg day^−1): greater than dose-proportional
- time of maximum peak drug levels post dose ([5]; all patients): 3.69 ± 0.79 h
- accumulation in plasma: exposure higher by the last day of dosing ([5]; days 1–5 dosing): approximately two-fold
- interpatient coefficients of variation in AUC values ([5]; human, in vivo): > 100%
- relationship between apparent CL/F and BSA ([5]; human, in vivo): no relationship
- AUC(0-inf) [5, 9]: 0.05 µg·h/mL
- AUC(0-t) [5, 9]: 0.0362 µg·h/mL
- Cmax [5, 9]: 0.00807 µg/mL
- Tmax [5, 9]: 2.5 h
- half-life ([5]; human, 30 mg day^−1, first treatment course, mean, N=3, read-out: T1/2 (converted)): 5.53 h
- AUC(0-inf) [5, 10]: 0.517 µg·h/mL
- AUC(0-t) [5, 10]: 0.178 µg·h/mL
- Cmax [5, 10]: 0.0217 µg/mL
- Tmax [5, 10]: 3.5 h
- half-life ([5]; human, 60 mg day^−1, first treatment course, mean, N=4, read-out: T1/2 (converted)): 68.8 h
- AUC(0-inf) [5, 11]: 0.535 µg·h/mL
- AUC(0-t) [5, 11]: 0.329 µg·h/mL
- Cmax [5, 11]: 0.0411 µg/mL
- Tmax [5, 11]: 3.75 h
- half-life ([5]; human, 120 mg day^−1, first treatment course, mean, N=8, read-out: T1/2 (converted)): 31.2 h
- AUC(0-inf) [5, 12]: 2.24 µg·h/mL
- AUC(0-t) [5, 12]: 1.71 µg·h/mL
- Cmax [5, 12]: 0.167 µg/mL
- Tmax [5, 12]: 4 h
- AUC(0-inf) [5, 13]: 1.81 µg·h/mL
- AUC(0-t) [5, 13]: 0.97 µg·h/mL
- Cmax [5, 13]: 0.112 µg/mL
- Tmax [5, 13]: 4.67 h
- half-life ([5]; human, all dose levels, read-out: mean terminal half-life): ≤ 70 h
- reduction in the systemic exposure ([6]; repeated daily oral doses): approximately 60%
- increase of systemic exposure with dose ([6]; single oral administration): more than dose-proportionally
- maximum tolerated dose (MTD) (rats): 150 mg m^−2
- administered dose excreted unchanged in urine [7]: Less than 0.5%
- cardiac toxicity [8]: no cardiac toxicity was detected
